Earlier results on 1 molecule are cited in patent US10675240B2 (priority 2014, dated 2020).

The conditions of this data set: background statement.

As for `CC1=CC[C@H]2C[C@@H]1C2(C)C` [α-Pinene, (1S,5S)-2,6,6-Trimethylbicyclo[3.1.1]hept-2-ene], the human pulmonary uptake is 60%.
